Data taken from patent US20260274876A1, “3-PYRROLIDINE-INDOLE DIMERS AS SEROTONERGIC AGENTS USEFUL FOR THE TREATMENT OF DISORDERS RELATED THERETO” (MINDSET PHARMA INC., priority 2022, published 2026).
pEC50: −log10 of the molar value. Where two headings read alike, the source gives them in different places.

Key:
human 5-HT2A receptor = human 5-HT2A receptor (Homo sapiens, UniProt P28223); assay: Human 5-HT2A functional FLIPR assay (agonist mode); assay type: cell-based; parameters: expressed in transfected cells; settings: for RFU@10 μM: FLIPR, h5-HT2A, curve fitting with activation (%) @ 10 mM with RFU (footnote)
human 5-HT2A receptor, sequence (P28223 whole entry): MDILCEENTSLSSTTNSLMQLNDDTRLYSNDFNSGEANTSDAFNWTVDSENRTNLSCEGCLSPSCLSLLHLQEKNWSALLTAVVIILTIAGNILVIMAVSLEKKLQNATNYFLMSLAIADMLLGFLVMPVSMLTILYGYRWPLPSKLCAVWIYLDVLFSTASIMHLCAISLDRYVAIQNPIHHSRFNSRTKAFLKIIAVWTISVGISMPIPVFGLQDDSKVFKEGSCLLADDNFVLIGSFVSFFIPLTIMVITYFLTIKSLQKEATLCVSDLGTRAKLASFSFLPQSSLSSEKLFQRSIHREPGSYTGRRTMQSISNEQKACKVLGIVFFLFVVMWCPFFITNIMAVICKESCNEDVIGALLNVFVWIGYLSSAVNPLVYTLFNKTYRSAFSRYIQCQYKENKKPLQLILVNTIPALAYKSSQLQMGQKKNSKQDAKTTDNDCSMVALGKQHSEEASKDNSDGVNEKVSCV
Procedure: The potential excitatory effects of compounds targeting on human 5-hydroxytryptamine receptor 2A (5-HT2A) under agonist mode was assessed.
HTR2A&Gα15-HEK293 cells were cultured in DMEM medium containing 10% dialyzed FBS and 1×penicillin-streptomycin, 100 μg/mL Hygromycin B and 300 μg/mL G418. The cells were passaged about three times a week, maintained between ~30% to ~90% confluence.
• 1. The cell culture medium (DMEM medium containing 10% dialyzed FBS and 1×penicillin-streptomycin, 100 μg/mL Hygromycin B and 300 μg/mL G418), TrypLE™ Express and DPBS to R.T. was warmed in advance. • 2. For induction, 1 μg/ml tetracycline (final concentration) was added to cell culture medium and incubated for 48 hours prior to seeding cells into plate at 37° C., 5% (v/v) CO2. The cell culture medium was removed from flask. Cells were washed with DPBS. • 3. 2 mL TrypLE™ Express was added to the flask, mixed well by gentle shaking and cells were incubated at 37° C. for a few minutes. • 4. The cells were checked for morphological change under microscope, the digestion was stopped by adding 4 mL cell culture medium to the flask when most of cells turned to round. • 5. The cell suspension was transferred into a 15 mL centrifuge tube, and then centrifuged at 1,200 rpm for 5 minutes. • 6. The supernatant was removed. The cell pellet was resuspended with 2 mL cell culture medium. • 7. The cell density was counted using cell counter. Only cells with >85% viability were used for the assay. • 8. Cells were diluted to 6.67×10^5/mL with cell culture medium. • 9. 30 μL/well cell suspensions added into a 384-well cell plate (The cell density was 20,000 cells/well). • 10. The cell plate was incubated overnight at 37° C., 5% (v/v) CO2.
On the day of experiments, culture medium was removed from the cell plate.
10 μL of assay buffer (20 mM HEPES, in 1×HBSS, pH 7.4) was added to each well of the cell plate.
2×dye solution was prepared following the manual of the FLIPR® Calcium 6 Assay Kit: • i. The dye was diluted with assay buffer. • ii. Probenecid was added to the final concentration of 5 mM. • iii. Vortexed vigorously for 1-2 minutes. • 4. 10 μL of 2×dye solution was added to each well of the cell plate • 5. The cell plate was placed on plate shaker, followed by shaking at 600 rpm for 2 minutes. • 6. The plate was incubated at 37° C. for 2 hours followed by an additional 15-minute incubation at 25° C. 2.4 Prepare 3×compound • 1. Serotonin HCl was prepared to the concentration of 10 mM with DMSO. • 2. The test compounds were prepared to the concentration of 10 mM with DMSO. • 3. The compounds were added to a 384-well compound source plate. • 4. 3-folds serial dilutions were performed with DMSO. • 5. 90 nL/well of serial diluted compounds was transferred from source plate to a 384-well compound plate by using an Echo. • 6. 30 μL/well of assay buffer (20 mM HEPES in 1×HBSS, pH 7.4) was added to the compound plate. • 7. The plate was mixed on-plate shaker for 2 minutes.
• 1. After the cells were incubated with dye solution, the cell plate, compound plate containing 3×compounds and FLIPR tips were placed into FLIPR. • 2. 10 μL of 3×compounds transferred from the compound plate to the cell plate by FLIPR. • 3. The plate was read for 160 sec with 1 sec interval and the data of agonist mode was obtained.
• 1. The normalized fluorescence reading (RFU) was calculated as shown below, wherein Fmax and Fmin stand for maximum and minimum of calcium signal during defined time window:
[formula] • 2. EC50 by fitting RFU against log of compound concentrations with Hill equation was calculated using XLfit.

[1] = Liver microsomes stability, human; settings: for Remaining Percentage (%) after 60 min, Human, With cofactors / Remaining Percentage (%) after 60 min, Human, Without cofactors: human liver microsomes; for half-life at 2 μM / microsomal CLint at 2 μM / metabolic stability in liver microsomes (statement): human; for half-life at 2 μM / microsomal CLint at 2 μM: pooled human liver microsomes; for metabolic stability in liver microsomes (statement): rat and mouse liver microsomes
Procedure: (§1) 40 μL of 10 mM NADPH solution was added to each well. The final concentration of NADPH was 1 mM. The negative control samples were prepared by replacing NADPH with 40 μL of ultra-pure H2O. Samples were prepared in duplicate. Negative controls were prepared in singlet.
(§2) This study was performed in duplicate.
(§3) LC/MS analysis was performed for all samples from this study using a Shimadzu liquid chromatograph separation system equipped with degasser DGU-20A5R; solvent delivery unit LC-30AD; system controller SIL-30AC; column oven CTO-30A; CTC Analytics HTC PAL System. Mass spectrometric analysis was performed using a Triple Quad™ 5500 instrument.
(§4) All calculations were carried out using Microsoft Excel.
(§5) All calculations were carried out using Microsoft Excel. Peak areas were determined from extracted ion chromatograms.

[2] = Liver microsomes stability, rat; settings: for Remaining Percentage (%) after 60 min, Rat, With cofactors / half-life at 2 μM / microsomal CLint at 2 μM / Remaining Percentage (%) after 60 min, Rat, Without cofactors: rat liver microsomes; for half-life at 2 μM / microsomal CLint at 2 μM: male, rat
Procedure: as §1, §2, §3, §4, §5

[3] = FLIPR agonist mode, HTR2A&Gα15-HEK293 cells, ND: not detected, read-out: h5-HT2A, EC50

| SMILES | pEC50 (human 5-HT2A receptor) | RFU@10 μM (human 5-HT2A receptor) | t1/2 Human ([1]; human liver microsomes with NADPH, 2 μM) | Remaining Percentage (%) after 60 min, Human, With cofactors [1] | t1/2 Rat ([2]; rat liver microsomes with NADPH, 2 μM) | Remaining Percentage (%) after 60 min, Rat, With cofactors [2] | pEC50 (human 5-HT2A receptor; [3]) | Remaining Percentage (%) after 60 min, Human, Without cofactors [1] | half-life at 2 μM [1] | microsomal CLint at 2 μM [1] | metabolic stability in liver microsomes (statement) [1] | half-life at 2 μM [2] | microsomal CLint at 2 μM [2] | Remaining Percentage (%) after 60 min, Rat, Without cofactors [2] |
| --- | --- | --- | --- | --- | --- | --- | --- | --- | --- | --- | --- | --- | --- | --- |
| [2H]C([2H])(c1c[nH]c2cccc(O)c12)[C@H]1CCCN1C([2H])([2H])[2H] [Compound 13, (R)-3-((1-(methyl-d3)pyrrolidin-2-yl)methyl-d2)-1H-indol-4-ol] | 7.36 | 3108 RFU | – | – | – | – | – | – | – | – | – | – | – | – |
| CN(C)CCc1c[nH]c2cccc(O)c12 [Psilocin, 4-hydroxy-N,N-dimethyltryptamine, reference compound] | – | 308 RFU | 117.32 min | 70.16% | 89.01 min | 62.68% | – | – | – | – | – | – | – | – |
| CN1CCC[C@@H]1Cc1c[nH]c2cccc(O)c12 [Compound 10, (R)-3-((1-methylpyrrolidin-2-yl)methyl)-1H-indol-4-ol] | 7.33 | 2929 RFU | – | – | – | – | – | – | – | – | – | – | – | – |
| [2H]C([2H])(c1c[nH]c2cccc(OC(=O)CCCC(=O)Oc3cccc4[nH]cc(C([2H])([2H])[C@H]5CCCN5C([2H])([2H])[2H])c34)c12)[C@H]1CCCN1C([2H])([2H])[2H] [Compound I-22, bis(3-(((R)-1-(methyl-d3)pyrrolidin-2-yl)methyl-d2)-1H-indol-4-yl) glutarate] | – | 5409 RFU | – | 0% | – | 0% | 7.88 | 1.38% | 4.67 min | 297 µL/min/mg | rapidly metabolized | < 4.51 min | > 307 µL/min/mg | 0.22% |
| CN1CCC[C@@H]1Cc1c[nH]c2cccc(OC(=O)CCCC(=O)Oc3cccc4[nH]cc(C[C@H]5CCCN5C)c34)c12 [Compound I-13, Bis(3-(((R)-1-methylpyrrolidin-2-yl)methyl)-1H-indol-4-yl) glutarate] | – | 3887 RFU | – | 0% | – | 0% | 7.49 | 0% | < 4.51 min | > 307 µL/min/mg | rapidly metabolized | < 4.51 min | > 307 µL/min/mg | 0% |
